This is an account of results in patent publication US9365589B2, “C5, C6 oxacyclic-fused thiazine dioxide compounds as BACE inhibitors, compositions, and their use” (Merck Sharp & Dohme Corp., priority 2012, dated 2016).

Read-outs that look alike come from different tables or passages of the source.

The target of assay [1] is purified human autoBACE-2 (Homo sapiens (Human), UniProt Q9Y5Z0). The assay can be described thus: BACE-2 Assay (BACE-HTRF assay). It is filed as biochemical. The method, then:
DMSO is present at 5% final concentration in the assay. Following laser excitation of sample wells at 320 nm, the fluorescence signal at 620 nm is collected for 400 ms following a 50 μs delay on a RUBYstar HTRF plate reader (BMG Labtechnologies). Raw RFU data is normalized to maximum (1.0 nM BACE/DMSO) and minimum (no enzyme/DMSO) RFU values. […] The Ki values are calculated from the IC50 using the Cheng-Prusoff equation.
(In general: In TR-FRET formats the signal depends on donor and acceptor labels being close together.)

Assay [2] concerns the target soluble human BACE1 catalytic domain (Homo sapiens (Human), UniProt P56817). The assay can be described thus: BACE1 HTRF FRET Assay. The following applies: Ki calculated from IC50 using the Cheng-Prusoff equation; QSY7-APPswe-Eu substrate, pH 5.0. In kind it is biochemical. An excerpt: A homogeneous time-resolved FRET assay can be used to determine IC50 values for inhibitors of the soluble human BACE1 catalytic domain. This assay monitors the increase of 620 nm fluorescence that resulted from BACE1 cleavage of an APPswedish APP^swe mutant peptide FRET substrate (QSY7-[…]-Europium-amide). This substrate contains an N-terminal QSY7 moiety that serves as a quencher of the C-terminal Europium fluorophore (620 nm Em). In the absence of enzyme activity, 620 nm fluorescence is low in the assay and increased linearly over 3 hours in the presence of uninhibited BACE1 enzyme Inhibition of BACE1 cleavage of the QSY7-APP^swe-Eu substrate by inhibitors is manifested as a suppression of 620 nm fluorescence.
Reactions are initiated by addition of 10 μl of 600 nM QSY7-APP^swe-Eu substrate (200 nM final) to give a final reaction volume of 30 μl in a 384 well Nunc HTRF plate. The reactions are incubated at 30° C. for 1.5 hours. The 620 nm fluorescence is then read on a Rubystar HTRF plate reader (BMG Labtechnologies) using a 50 millisecond delay followed by a 400 millisecond acquisition time window Inhibitor IC50 values are derived from non-linear regression analysis of concentration response curves.

purified human autoBACE-2, sequence (Q9Y5Z0 63-473 limits assumed): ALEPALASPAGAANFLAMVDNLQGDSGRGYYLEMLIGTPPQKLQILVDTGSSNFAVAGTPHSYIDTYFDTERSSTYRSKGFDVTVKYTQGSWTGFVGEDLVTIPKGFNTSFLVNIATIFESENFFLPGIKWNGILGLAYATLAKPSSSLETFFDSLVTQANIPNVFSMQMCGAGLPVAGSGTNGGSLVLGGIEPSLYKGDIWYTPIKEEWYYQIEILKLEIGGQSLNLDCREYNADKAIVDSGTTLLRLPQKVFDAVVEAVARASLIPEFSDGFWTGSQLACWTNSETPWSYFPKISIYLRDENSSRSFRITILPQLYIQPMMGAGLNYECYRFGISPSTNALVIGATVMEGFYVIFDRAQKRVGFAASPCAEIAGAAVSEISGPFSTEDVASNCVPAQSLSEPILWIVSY
soluble human BACE1 catalytic domain, sequence (P56817 75-416): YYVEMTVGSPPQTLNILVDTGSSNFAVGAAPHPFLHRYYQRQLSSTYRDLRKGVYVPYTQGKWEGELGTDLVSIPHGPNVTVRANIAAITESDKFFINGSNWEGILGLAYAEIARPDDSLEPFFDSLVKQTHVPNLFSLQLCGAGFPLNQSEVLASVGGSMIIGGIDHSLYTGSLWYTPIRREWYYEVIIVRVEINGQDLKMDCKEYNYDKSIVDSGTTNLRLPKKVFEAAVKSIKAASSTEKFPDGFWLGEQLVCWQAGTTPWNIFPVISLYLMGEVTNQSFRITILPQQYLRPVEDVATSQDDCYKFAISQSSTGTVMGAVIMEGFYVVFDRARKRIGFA

For `CC1(C)C(=N)N[C@@]2(c3cc(NC(=O)c4ccc(Cl)cn4)ccc3F)COC[C@H]2S1(=O)=O` [Example 1b], the Ki (as a rule, the dissociation constant of the complex between target and ligand, obtained from inhibition or displacement) in assay [1] (read-out: BACE2 Ki) is 1 nM; in assay [2], 2.5 nM.
In the case of `COc1ccc(C(=O)Nc2ccc(F)c([C@]34COC[C@H]3S(=O)(=O)C(C)(C)C(=N)N4)c2)nc1` [Example 1c], the Ki in assay [1] (read-out: BACE2 Ki) is 3 nM; in assay [2], 5.8 nM.
Consider `Cc1cc(C(=O)Nc2ccc(F)c([C@]34COC[C@H]3S(=O)(=O)C(C)(C)C(=N)N4)c2)on1` [Example 1i], for which the Ki in assay [1] (read-out: BACE2 Ki) was 93 nM; in assay [2], 559 nM.
As to `COc1cnc(C(=O)Nc2ccc(F)c([C@]34COC(CF)[C@H]3S(=O)(=O)C(C)(C)C(=N)N4)c2)cn1` (single isomer, unassigned) [Example 4e], in assay [1] (BACE2 Ki (nM)), the Ki worked out at 11 nM.
As for `CC1(C)C(=N)N[C@@]2(c3cc(NC(=O)c4cn5ccsc5n4)ccc3F)COC[C@H]2S1(=O)=O` [Example 1g], the results for the Ki in assay [1] (read-out: BACE2 Ki) and in assay [2] were 3 nM and 25 nM, respectively.
Consider `COc1cnc(C(=O)Nc2ccc(F)c([C@]34COC[C@H]3S(=O)(=O)C(C)(C)C(=N)N4)c2)cn1` [Example 1d], for which the figures for the Ki in assay [1] (read-out: BACE2 Ki) and in assay [2] were 5 nM and 6.2 nM, respectively.
With `CC1(C)C(=N)N[C@@]2(c3cc(NC(=O)c4ccc(F)cn4)ccc3F)COC[C@H]2S1(=O)=O` [Example 1a], the figures for the Ki in assay [1] (read-out: BACE2 Ki) and in assay [2] were 1 nM and 3.5 nM, respectively.
With `Cn1ccc(C(=O)Nc2ccc(F)c([C@]34COC[C@H]3S(=O)(=O)C(C)(C)C(=N)N4)c2)n1` [Example 1e], the Ki was 2 nM in assay [1] (read-out: BACE2 Ki) and 13 nM in assay [2].
In the same order, the values of `CC1(C)C(=N)N[C@@]2(c3cc(NC(=O)c4ccc(C(F)(F)F)cn4)ccc3F)COC[C@H]2S1(=O)=O` [Example 1aa] are 8 nM and 3 nM.
As to `CC1(C)C(=N)N[C@@]2(c3cc(NC(=O)c4ncc(Cl)cc4F)ccc3F)COC[C@H]2S1(=O)=O` [Example 1k], the Ki in assay [1] (read-out: BACE2 Ki) is 1 nM; in assay [2] it was 3 nM.
In the case of `Cc1cc(C(=O)Nc2ccc(F)c([C@]34COC[C@H]3S(=O)(=O)C(C)(C)C(=N)N4)c2)no1` [Example 1f], the inhibitory constant (Ki) is 24 nM in assay [1] (read-out: BACE2 Ki) and 201 nM in assay [2].
As to `CC1(C)C(=N)N[C@@]2(c3cc(NC(=O)c4ccc(F)cn4)ccc3F)COC(CF)[C@H]2S1(=O)=O` (single isomer, unassigned) [Example 4b], the Ki in assay [1] (BACE2 Ki (nM)) was 18 nM; in assay [2], 42 nM.
Take `C[C@@]1(c2ccc(F)cc2)C(=N)N[C@@]2(c3cc(NC(=O)c4ccc(F)cn4)ccc3F)COC[C@H]2S1(=O)=O` [Example 8a]: the figures for the Ki in assay [1] (BACE2 Ki (nM)) and in assay [2] were 9 nM and 84 nM, respectively.
Take `CC1(C)C(=N)N[C@@]2(c3cc(NC(=O)c4cnc(C(F)(F)F)cn4)ccc3F)COC[C@H]2S1(=O)=O` [Example 1q]: the Ki is 35 nM in assay [1] (read-out: BACE2 Ki) and 13 nM in assay [2].
`COCC(=O)Nc1ccc(F)c([C@]23COC[C@H]2S(=O)(=O)C(C)(C)C(=N)N3)c1` [Example 1m]: the figures for the Ki in assay [1] (read-out: BACE2 Ki) and in assay [2] were 5 nM and 74 nM, respectively.
`C[C@]1(C2CC2)C(=N)N[C@@]2(c3cc(NC(=O)c4ccc(F)cn4)ccc3F)COC[C@H]2S1(=O)=O` [Example 13b]: the values for the Ki in assay [1] (read-out: BACE2 Ki) and in assay [2] were 11 nM and 62 nM, respectively.
With `CC1(C)C(=N)N[C@@]2(c3cc(NC(=O)c4ccc(F)cn4)ccc3F)COC(CF)[C@H]2S1(=O)=O` (single isomer, unassigned) [Example 4a], the Ki in assay [1] (BACE2 Ki (nM)) is 1 nM; in assay [2], 3 nM.
For the molecule `COc1cnc(C(=O)Nc2ccc(F)c([C@]34COC(CF)[C@H]3S(=O)(=O)C(C)(C)C(=N)N4)c2)cn1` (single isomer, unassigned) [Example 4h], the affinity in assay [1] (BACE2 Ki (nM)) corresponds to a Ki of 476 nM.
`Cn1cc(C(=O)Nc2ccc(F)c([C@]34COC[C@H]3S(=O)(=O)C(C)(C)C(=N)N4)c2)c(C(F)(F)F)n1` [Example 1j]: the Ki in assay [1] (read-out: BACE2 Ki) was 309 nM; in assay [2], 1100 nM.
For `Cc1nc(C(=O)Nc2ccc(F)c([C@]34COC[C@H]3S(=O)(=O)C(C)(C)C(=N)N4)c2)c(C)o1` [Example 1l], the Ki in assay [1] (read-out: BACE2 Ki) is 1 nM; in assay [2], 6 nM.
In the same order, the values of `C#CCOc1ccc(C(=O)Nc2ccc(F)c([C@]34COC[C@H]3S(=O)(=O)C(C)(C)C(=N)N4)c2)nc1` [Example 1y] are 7 nM and 1 nM.
Turning to `COc1cnc(C(=O)Nc2ccc(F)c([C@]34COC[C@H]3S(=O)(=O)C(C)(C)C(=N)N4)c2)c(C)n1` [Example 1t], the Ki in assay [1] (read-out: BACE2 Ki) is 6 nM; in assay [2], 10 nM.
The corresponding values for `Cc1cc(C#N)cnc1C(=O)Nc1ccc(F)c([C@]23COC[C@H]2S(=O)(=O)C(C)(C)C(=N)N3)c1` [Example 1u] are 1 nM and 1 nM.
Consider `CC1(C)C(=N)N[C@@]2(c3cc(NC(=O)c4cnc(OCCF)cn4)ccc3F)COC[C@H]2S1(=O)=O` [Example 1h], for which the figures for the Ki in assay [1] (read-out: BACE2 Ki) and in assay [2] were 18 nM and 7 nM, respectively.
In the case of `CC1(C)C(=N)N[C@@]2(c3cc(NC(=O)c4ccc(C#N)cn4)ccc3F)COC[C@H]2S1(=O)=O` [Example 1r], the Ki in assay [1] (read-out: BACE2 Ki) and in assay [2] was 1 nM throughout.
Consider `CO[C@@H](C)C(=O)Nc1ccc(F)c([C@]23COC[C@H]2S(=O)(=O)C(C)(C)C(=N)N3)c1` [Example 1o], for which the Ki in assay [1] (read-out: BACE2 Ki) is 42 nM; in assay [2] it was 213 nM.
Regarding `CC1(C)C(=N)N[C@@]2(c3cc(NC(=O)c4cnsn4)ccc3F)COC[C@H]2S1(=O)=O` [Example 1v], the inhibitory constant (Ki) is 1 nM in assay [1] (read-out: BACE2 Ki) and 8 nM in assay [2].
Regarding `C#CCOc1cnc(C(=O)Nc2ccc(F)c([C@]34COC[C@H]3S(=O)(=O)C(C)(C)C(=N)N4)c2)cn1` [Example 1w], the figures for the inhibition constant Ki in assay [1] (read-out: BACE2 Ki) and in assay [2] were 2 nM and 1 nM, respectively.
With `C[C@@]1(C2CC2)C(=N)N[C@@]2(c3cc(NC(=O)c4ccc(F)cn4)ccc3F)COC[C@H]2S1(=O)=O` [Example 13a], the Ki in assay [1] (read-out: BACE2 Ki) is 6 nM; in assay [2], 39 nM.
The corresponding values for `CO[C@H](C)C(=O)Nc1ccc(F)c([C@]23COC[C@H]2S(=O)(=O)C(C)(C)C(=N)N3)c1` [Example 1p] are 16 nM and 151 nM.
In the case of `CC1(C)C(=N)N[C@@]2(c3cc(NC(=O)c4ccn(C(F)F)n4)ccc3F)COC[C@H]2S1(=O)=O` [Example 1z], the Ki in assay [1] (read-out: BACE2 Ki) and in assay [2] was 1 nM each time.
Regarding `COc1cnc(C(=O)Nc2ccc(F)c([C@]34COC[C@H]3S(=O)(=O)C(C)(C)C(=N)N4)c2)c(C)c1` [Example 1s], the results for the Ki in assay [1] (read-out: BACE2 Ki) and in assay [2] were 1 nM and 4 nM, respectively.
Take `CC1(C)C(=N)N[C@@]2(c3cc(NC(=O)c4ccc(OCF)cn4)ccc3F)COC[C@H]2S1(=O)=O` [Example 1x]: the inhibitory constant (Ki) in assay [1] (read-out: BACE2 Ki) was 2 nM; in assay [2], 3 nM.
In the case of `CC1(C)C(=N)N[C@@]2(c3cc(NC(=O)C(F)F)ccc3F)COC[C@H]2S1(=O)=O` [Example 1n], the inhibition constant Ki in assay [1] (read-out: BACE2 Ki) was 33 nM; in assay [2] it was 258 nM.
For `C[C@]1(c2ccc(F)cc2)C(=N)N[C@@]2(c3cc(NC(=O)c4ccc(F)cn4)ccc3F)COC[C@H]2S1(=O)=O` [Example 8b], the Ki in assay [1] (BACE2 Ki (nM)) and in assay [2] was 1 nM in each case.
